Results published in patent US6350859B1, “Class BI and CI scavenger receptors” (Massachusetts Institute of Technology, priority 1994, dated 2002).

Key:
haSR-BI [1] = biological target: T1, haSR-BI (Cricetulus griseus, UniProt Q60417); experiment: [3H]-liposome binding at 4° C. to haSR-BI in ldlA[haSR-BI] cells; design: species or system hamster; settings: EDTA 1-10 mM
T1 construct: expressed in transfected cells
T1 sequence (Q60417 1-509): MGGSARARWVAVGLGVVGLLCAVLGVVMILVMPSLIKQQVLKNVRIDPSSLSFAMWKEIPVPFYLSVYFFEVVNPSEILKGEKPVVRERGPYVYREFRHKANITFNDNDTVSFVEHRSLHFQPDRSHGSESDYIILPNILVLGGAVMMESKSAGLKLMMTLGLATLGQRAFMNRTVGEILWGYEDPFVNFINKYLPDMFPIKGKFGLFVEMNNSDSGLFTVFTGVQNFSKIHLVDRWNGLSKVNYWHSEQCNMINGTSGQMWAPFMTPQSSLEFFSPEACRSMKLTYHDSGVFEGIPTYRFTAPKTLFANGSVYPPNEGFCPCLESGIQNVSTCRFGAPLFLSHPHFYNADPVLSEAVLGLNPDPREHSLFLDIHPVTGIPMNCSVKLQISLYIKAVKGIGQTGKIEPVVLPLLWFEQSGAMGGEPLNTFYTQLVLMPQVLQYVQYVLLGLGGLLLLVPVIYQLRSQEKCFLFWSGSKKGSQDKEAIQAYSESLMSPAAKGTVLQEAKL
Procedure: Unilamellar liposomes were made by extrusion through policarbonate membranes (Szoka et al., 1980). Phospholipid liposomes were prepared containing the indicated phospholipid, phosphatidycholine, and free cholesterol in a molar ratio of 1:1:1. The lipids were mixed in chloroform and dried by rotary evaporation for 30 min. For preparation of radiolabeled liposomes, 50-75 μCi of [^3H]DPPC(62 Ci/mmol) were added to the lipid mixtures before drying. The dried lipids were resuspended in 150 mM NaCl, 0.1 mM EDTA, 10 mM HEPES, pH 7.5 (Buffer A). […] The final phospholipid concentration was determined by the method of Bartlett (1959). The average diameters of unlabeled liposomes, which were determined from either two or three independent preparations using light scattering with a Coulter N4 plus light scatterer apparatus (Coulter Electronics Inc., Hialeah, Fla.), were: PS, 105; PC, 114: PA, 125; PE, 129; P1, 113; and SM, 131 nm. The number of phospholipid molecules/PS liposome was calculated as follows. […]
Ligand Binding Assays. […] The cells were then solubilized with […], and radioactivity and protein determinations were made as described above. […] The binding values are expressed as nanograms of bound ^125I-labeled protein or ng of total phospholipids from ^3H-labeled liposomes/milligram of cell protein. […]

Var-261 cells [2] = experiment: 125I-AcLDL degradation and binding plus uptake at 37° C. in Var-261 cells; assay type: cell-based, Chinese hamster; settings: for competition for 125I-AcLDL degradation: 125I-AcLDL 5 μg/ml, 5 hr
dSR-CI = experiment: Competitive inhibition of 125I-AcLDL degradation activity by CHO[dSR-CI]-2.6a cells; assay type: cell-based, Drosophila melanogaster
Procedure: (§1) Scavenger receptor activities at 37° C. were measured by ligand binding, uptake and degradation assays as described by Krieger, 1983; Freeman et al., 1991). Although binding and uptake at 37° C. were determined separately using dextran-sulfate to free surface bound lipoproteins from the cells as described for LDL receptor assays by Goldstein et al., 1983; Basu et al., 1983 Science 219, 871-873), this method for separating bound from internalized ligand for ^125I-AcLDL and scavenger receptors has not been independently validated. Accordingly, the values for binding and uptake were combined and are presented as binding plus uptake observed after a 5 hour incubation and are expressed as ng of ^125I-AcLDL protein per 5 hr per mg cell protein. Degradation activity is expressed as ng of ^125I-AcLDL protein degraded in 5 hours per mg of cell protein. The specific, high affinity values presented represent the differences between the results obtained in the presence (single determinations) and absence (duplicate determinations) of excess unlabeled competing ligand (75 to 200 μg/ml of M-BSA). Cell surface 4° C. binding was assayed using either method A or method B as indicated. In method A, cells were prechilled on ice for 15 min, re-fed with ^125I-AcLDL in ice-cold medium B supplemented with 10% (v/v) fetal bovine serum, with or without 75-200 μg/ml unlabeled M-BSA, and incubated 2 hr at 4° C. on a shaker. Cells were then washed rapidly three times with Tris wash buffer (50 mM Tris-HCl, 0.15M NaCl, pH 7.4) containing 2 mg/ml BSA, followed by two 5 min washes, and two rapid washes with Tris wash buffer without BSA. The cells were solubilized in 1 ml of 0.1N NaOH for 20 min at room temperature on a shaker, 30 μl were removed for protein determination, and the radioactivity in the remainder was determined using a LKB gamma counter. Method B differed from method A in that the cells were prechilled for 45 minutes, the medium contained 10 mM HEPES and 5% (v/v) human lipoprotein-deficient serum rather than fetal bovine serum, and the cell-associated radioactivity released by treatment with dextran sulfate was measured as described by Krieger, 1983; Freeman et al., 1991).
Competitive binding of AcLDL was performed to more accurately define the specificity of the AcLDL binding.

CD36 = biological target: T2, CD36 (Homo sapiens, UniProt P16671); experiment: 125I-AcLDL degradation at 37° C. in COS cells transfected with CD36, competition; assay type: cell-based; settings: 5 hr, FIG. 4B: M-BSA 4, AcLDL 500, fucoidin 200, poly I 500, poly G 500, ReLPS 250 μg/ml
T2 construct: expressed in transfected cells; host or cells: COS cells (transient)
Procedure: as §1
COS cells were transfected on day 1 with a plasmid encoding CD36. On day 2 the transfected cells were set in 6-well dishes at 1×10^6 cells/well in medium A plus 1 mM sodium butyrate. On day 3, 125I-AcLDL binding at 4° C. was measured. […] On day 3, degradation of ^125I-AcLDL (5 μg/ml) was measured after a 5 hr incubation at 37° C. in the absence (duplicate determinations) or presence (duplicate determinations) of the indicated competitors. […]

haSR-BI [3] = biological target: T1, haSR-BI; experiment: 125I-AcLDL binding at 4° C. to haSR-BI in transfected COS or ldlA cells; design: species or system hamster; settings: ldlA[haSR-BI] cells, 125I-AcLDL 5 μg/ml, FIG. 3B: M-BSA 10, poly G 500, fucoidin 200, carrageenan 200, LDL 500 μg/ml
Procedure: as §1
HDL and VLDL binding to SR-BI and CD36 were conducted as described for LDL and modified LDL.
(§2) To measure binding of AcLDL, on day 1, COS cells were transfected with the expression vector for the hamster scavenger receptor type BI (haSR-BI). On day 2 the transfected COS cells were plated in 6-well dishes (1×10^6 cells/well in medium A plus 1 mM sodium butyrate). […] On day 3 the binding of ^125I-AcLDL (5 μg/ml) at 4° C. in the absence or presence of the indicated competitors was measured using Method A. The values shown in the Figures represent the averages of duplicate determinations. […]

Var-261 cells [4] = experiment: 125I-AcLDL binding at 4° C. to Var-261 cells, competition; design: species or system Chinese hamster; settings: 125I-AcLDL 5 μg/ml, FIG. 3B: M-BSA 10, poly G 500, fucoidin 200, carrageenan 200, LDL 500 μg/ml
Procedure: as §1, §2

[5] = biological target: T3, murine type II macrophage scavenger receptor (mSR-AII) (Mus musculus, UniProt P30204); experiment: 125I-AcLDL degradation at 37° C. in COS cells expressing murine scavenger receptor type II; assay type: cell-based; settings: for competition for 125I-AcLDL degradation: COS[mSR-AII] cells, 125I-AcLDL 5 μg/ml, 5 hr, 37° C.
T3 construct: expressed in transfected cells; host or cells: COS cells (transient)
T3 sequence (P30204 1-354 isoform P30204-2): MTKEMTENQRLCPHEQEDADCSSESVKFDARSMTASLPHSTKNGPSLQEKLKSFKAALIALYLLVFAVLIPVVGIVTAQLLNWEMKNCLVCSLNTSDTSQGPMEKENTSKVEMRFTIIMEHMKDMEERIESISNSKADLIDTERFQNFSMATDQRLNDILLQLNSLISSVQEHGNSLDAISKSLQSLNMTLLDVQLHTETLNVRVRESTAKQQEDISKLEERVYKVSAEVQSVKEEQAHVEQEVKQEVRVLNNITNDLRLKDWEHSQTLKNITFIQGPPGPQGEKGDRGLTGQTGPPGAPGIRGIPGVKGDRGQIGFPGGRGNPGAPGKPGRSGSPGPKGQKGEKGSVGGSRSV
Procedure: as §1, with “In method A, cells were prechilled on ice for 15 min, re-fed with ^125I-AcLDL in ice-cold medium B supplemented with 10% (v/v) fetal bovine serum, with or without 75-200 μg/ml unlabeled M-BSA, and incubated 2 hr at 4° C. on a shaker. Cells were then washed rapidly three times with Tris wash buffer (50 mM Tris-HCl, 0.15M NaCl, pH 7.4) containing 2 mg/ml BSA, followed by two 5 min washes, and two rapid washes with Tris wash buffer without BSA.” left out
COS cells were transfected on day 1 with murine scavenger receptor type II. […] On day 3, ^125I-AcLDL (5 μg/ml) in medium B plus 10% fetal bovine serum was added to the cells and degradation was measured after a 5 hr incubation at 37° C. in the absence (duplicate determinations) or presence (duplicate determinations) of the indicated amounts of polyanions. […]

T2 sequence (P16671 whole entry): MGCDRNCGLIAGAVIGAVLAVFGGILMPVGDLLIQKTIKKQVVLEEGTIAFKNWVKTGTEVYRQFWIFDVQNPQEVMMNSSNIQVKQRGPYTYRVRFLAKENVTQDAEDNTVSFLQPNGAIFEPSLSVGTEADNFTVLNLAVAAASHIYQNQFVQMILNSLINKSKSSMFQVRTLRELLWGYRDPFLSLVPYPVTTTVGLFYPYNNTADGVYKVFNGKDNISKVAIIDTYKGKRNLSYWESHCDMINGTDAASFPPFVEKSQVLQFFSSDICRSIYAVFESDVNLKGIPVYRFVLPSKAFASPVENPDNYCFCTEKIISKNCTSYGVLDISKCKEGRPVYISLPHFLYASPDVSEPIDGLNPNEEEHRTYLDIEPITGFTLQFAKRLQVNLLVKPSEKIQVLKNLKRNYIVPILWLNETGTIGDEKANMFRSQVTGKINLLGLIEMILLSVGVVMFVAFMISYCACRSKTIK

inhibition of receptor activity, 125I-AcLDL degradation (CD36) | inhibition of 125I-AcLDL binding (haSR-BI [3]) | Compound | Degradation (% No Competitor) (dSR-CI; competitor 400 μg/ml) | inhibition of 125I-AcLDL binding (Var-261 cells [4]) | competition for 125I-AcLDL degradation (Var-261 cells [2]; 37° C.) | also measured
 |  | O=C(O)CN(CCN(CC(=O)O)CC(=O)O)CC(=O)O [EDTA] |  |  |  | effect on PS liposome binding (haSR-BI [1]): not inhibited
 |  | CCN(CC)CCCC(C)Nc1ccnc2cc(Cl)ccc12 (stereo not drawn) [chloroquine] |  |  |  | effect on 125I-AcLDL binding plus uptake (Var-261 cells [2]; 37° C.): not; effect on 125I-AcLDL degradation (Var-261 cells [2]; 37° C.): inhibited
 |  | Dextran | 100 |  |  | 
inhibited | inhibited | M-BSA: maleylated BSA | 6.7 | inhibited | inhibited | 
 |  | Poly D-glutamic acid | 34 |  |  | 
not | not inhibited | Polyriboguanylic acid [poly G] |  | competitors | effective competitors | competition for 125I-AcLDL degradation [5]: effective competitors
 | not inhibited | carrageenan |  | competitors |  | 
 |  | dextran sulfate |  |  |  | Degradation (% No Competitor) (dSR-CI; competitor concentration not given): 4.2 % No Competitor
not | not inhibited | fucoidin |  | competitors | effective competitors | competition for 125I-AcLDL degradation [5]: effective competitors
not |  | polyriboinosinic acid [poly I] | 2.7 |  |  | inhibition of 125I-AcLDL degradation ([5]; class A scavenger receptors, competitor at 2.5 μg/ml): greater than 50%; inhibition of 125I-AcLDL degradation (Var-261 cells [2]; competitor at 400 μg/ml): 34%
